{"source": "patent US20230321189A1", "about": "“THERAPEUTIC AGENTS, PHARMACEUTICAL COMPOSITIONS, AND ASSOCIATED BIOMARKERS BASED ON TRK-B” (INSTITUTO DE MEDICINA MOLECULAR JOÃO LOBO ANTUNES, priority 2020, published 2023)", "key": {"hippocampal synaptosomes": {"tested_on": "hippocampal synaptosomes", "assay": "[3H]glutamate release from hippocampal synaptosomes", "assay_type": "cell-based, rat", "settings": "BDNF 30 ng/ml", "method": "Isolation of Synaptosomes. The synaptosomal fraction from rat hippocampi was prepared as routinely in the lab^3. Hippocampal slices (male Wistar rats, 7-10 weeks old) were prepared and treated with vehicle or Aβ1-42, as described above. Then, slices were added to 5 ml of ice-cold isosmotic sucrose solution (0.32 M, containing 1 mM EDTA, 1 mg/ml BSA, 10 mM HEPES, pH 7.4), and homogenized in a Potter-Elvehjem homogenizer with a Teflon piston (four up-and-down strokes) and the volume completed to 10 ml with the sucrose solution. After a first centrifugation at 3,000 g for 10 min (Heraeus sepatech—Biofuge 28RS centrifuge with 3746 rotor), the supernatant was collected and centrifuged at 14,000 g for 12 min. The whole procedure was conducted at 4° C. The pellet was resuspended in 1 ml 45% Percoll in KHR solution consisting of (in mM) NaCl 140, EDTA 1, HEPES 10, KCl 5, and glucose 5, and centrifuged at 16,000 g for 2 min. The synaptosomal fraction corresponds to the top buoyant layer and was collected from the tube. Percoll was removed by two washes with 1 ml KHR solution centrifuged at 16,000 g for 2 min each; synaptosomes were then kept on ice and used within 3 hours. The synaptosomal protein concentration was assayed using the Bio-Rad DC™ protein assay and BSA as standard.\n[^3H]Glutamate Release from Hippocampal Synaptosomes. [3H]Glutamate release from hippocampal synaptosomes was performed as routinely in the lab^39. […]\nCalculation of drug effects on glutamate release. At the end of each experiment, aliquots (500 μl) of each sample as well as the filters from each superfusion chamber were analyzed by liquid scintillation counting. The fractional release was expressed as the percentage of total radioactivity present in the synaptosomes at each time point. The amount of radioactivity released by each pulse of K^+ (S1 and S2) was calculated by integration of the area of the peak upon subtraction of the estimated basal tritium release. […]"}, "hippocampal slices": {"tested_on": "hippocampal slices", "assay": "θ-burst Long-Term Potentiation (LTP) in acute hippocampal slices", "assay_type": "cell-based, rat", "text": "Young adult (7-10 weeks old) male Wistar rats were sacrificed by decapitation under deep isoflurane anaesthesia. The brain was quickly removed, hemisected and both hippocampi were dissected free within ice-cold artificial cerebrospinal fluid (aCSF) (mM: NaCl 124; KCl 3; NaH2PO4 1.25; NaHCO326; MgSO4 1; CaCl2 2; and glucose 10), previously gassed with 95% O2 and 5% CO2, pH 7.4.\nSlices (400 μm-thick) were cut perpendicularly to the long axis of the hippocampus with a McIlwain tissue chopper and allowed to recover for at least 60 min in a resting chamber, filled with the gassed aCSF, at room temperature (RT) (22-24° C.).\nHippocampal slices were incubated with vehicle or Aβ1-42 (200 nM) species (monomers, oligomers or fibrils) for 3 h at RT in gassed aCSF. We chose to perform slice incubation at RT, to avoid neuronal damage by hypoxic injury^27.\nSlices were transferred to a submerging chamber (1 ml) and continuously superfused at a3 ml/min rate with gassed aCSF at 32° C. Perfusion tubes were coated with 0.1 mg/ml BSA prior to experiments to avoid adsorption of BDNF to the tubes^35. Evoked field excitatory postsynaptic potentials (fEPSP) were recorded extracellularly through a microelectrode filled with 4 M NaCl (2-8 MΩ resistance) placed in the stratum radiatum of the CA1 area, as previously described^34,35. One pathway of the Schaffer collateral/commissural fibers was stimulated (rectangular pulses of 0.1 ms duration) at every 15 s (for V/O curves, basal synaptic transmission and Paired-Pulse Facilitation (PPF) recordings) or every 20 s (for LTP recordings), by a bipolar concentric wire electrode placed on the Schaffer fibers in the stratum radiatum, in the CA1 area. The initial intensity of the stimulus was adjusted to obtain a submaximal fEPSP slope with a minimum population spike contamination, near one-fifth of the fEPSP slope obtained with supramaximal stimulation. The averages of eight consecutive fEPSPs were obtained and the slope of the initial phase of the potential was quantified. Recordings were obtained with an Axoclamp 2B amplifier (Axon Instruments, Foster City, CA), digitized and continuously stored on a personal computer with the LTP program 3. All the protocols detailed below were started only after a stable baseline of at least 20 minutes.\nLong-Term Potentiation induction and saturation. A weak LTP-inducing θ-burst protocol consisting of four trains of 100 Hz, four stimuli, separated by 200 ms was used (4×4)^34,37. The intensity of the stimulus was never changed. LTP magnitude was quantified as the normalized change in the average slope of the fEPSP taken from 50 to 60 min after LTP induction in relation to the average slope of the fEPSP measured during the 10 min that preceded the induction of LTP.\nFor the experiments in FIG. 2, Brain-Derived Neurotrophic Factor (BDNF, 30 ng/ml) was added to the superfusing solution 20 min before the induction of LTP. Controls for these experiments were performed in different slices, without BDNF superfusion, on the same day. Generally, when testing BDNF effect on synaptic plasticity, two independent pathways of the same hippocampal slice are used, one serving as test and the other as internal control^35,38. However, because in the present experimental design slices were previously exposed to vehicle/Aβ for 3 h, we chose to test BDNF effect in different slices from the same rats. […]"}}}
{"substance": "BDNF: Brain-derived Neurotrophic Factor, supplied by Regeneron Pharmaceuticals", "values": [{"measurement": "BDNF effect on glutamate release after Aβ1-42 monomeric or fibrillar species", "setting": "hippocampal synaptosomes; Aβ 200 nM monomers or fibrils, P<0.05", "result": "preserved"}, {"measurement": "BDNF effect on glutamate release after Aβ1-42 oligomeric species", "setting": "hippocampal synaptosomes; Aβ 200 nM oligomers, P>0.05", "result": "impaired"}, {"measurement": "glutamate release, control conditions", "setting": "hippocampal synaptosomes; P<0.01", "result": "boosted"}, {"measurement": "LTP magnitude, control conditions", "setting": "hippocampal slices; BDNF 30 ng/ml", "result": "boosted"}, {"measurement": "BDNF effect on LTP after Aβ1-42 monomeric or fibrillar species", "setting": "hippocampal slices; BDNF 30 ng/ml, Aβ 200 nM monomers or fibrils, P<0.05", "result": "preserved"}, {"measurement": "BDNF effect on LTP after Aβ1-42 oligomeric species", "setting": "hippocampal slices; BDNF 30 ng/ml, Aβ 200 nM oligomers, P>0.05", "result": "impaired"}, {"measurement": "effect of exogenous BDNF on LTP in slices exposed to TAT-TrkB and Aβ oligomers", "setting": "hippocampal slices; BDNF 30 ng/ml, TAT-TrkB 20 μM, Aβ 200 nM, P>0.05", "result": "did not boost LTP further"}]}
{"substance": "TrkB-Fc: recombinant human TrkB/Fc chimera, BDNF's scavenger [reference compound]", "values": [{"measurement": "effect on LTP in slices exposed to Aβ oligomers and TAT-TrkB", "setting": "hippocampal slices; TrkB-Fc 2 μg/ml superfused from 30 min before LTP induction, TAT-TrkB 20 μM, P<0.05", "result": "counteracts the effect of TAT-TrkB on LTP reestablishment"}]}
